Measured values reported in PMC3676766, “New Radioligands for Describing the Molecular Pharmacology of MT1 and MT2 Melatonin Receptors” (International Journal of Molecular Sciences, 2013).
“And” between values parts separate entries of the source, which are not always exact repeats. Equal entries are not always repeated. Where two headings read alike, the source gives them in different places. One block for each molecule: values may come before it.

How the values were obtained:
hMT1 [1] = molecular target: T1, hMT1 (Homo sapiens, UniProt P48039); assay: HTRF (TR-FRET) cAMP assay, CHO-K1 cells expressing hMT1; type: cell-based; settings: 5 μM forskolin; for EC50: read-out: TR-FRET-cAMP pEC50 (converted)
T1 construct: expressed in transfected cells; membranes or whole cells
Description: (§1) Cellular cAMP production was measured using cAMP dynamic HTRF kits (Cisbio Bioassays, Bedford, MA, USA) according to the manufacturer’s instructions. CHO-K1 cells stably expressing the hMT1 or hMT2 receptor were grown to confluence, harvested in PBS buffer containing 5 mM EDTA, and centrifuged at 100× g for 10 min (4 °C). […] Next, 15 μL of cAMP-d2 conjugate and 15 μL of anti-cAMP-EuK conjugate in lysis buffer were incubated for 30 min at room temperature. […] Non-specific binding was assessed using 100 μM non-labeled cAMP. The data were analyzed using the program PRISM to yield the EC50 and Emax.

hMT2 [2] = molecular target: T2, hMT2 (Homo sapiens, UniProt P49286); assay: [35S]-GTPγS binding assay, hMT2; type: biochemical; settings: for [35S]-GTPγS Emax (%) / Emax: percentage of melatonin (1 μM = 100%); for EC50: mean ± SEM, read-out: [35S]-GTPγS pEC50 (converted)
T2 construct: expressed in transfected cells; membranes or whole cells
T2 sequence (P49286 1-362): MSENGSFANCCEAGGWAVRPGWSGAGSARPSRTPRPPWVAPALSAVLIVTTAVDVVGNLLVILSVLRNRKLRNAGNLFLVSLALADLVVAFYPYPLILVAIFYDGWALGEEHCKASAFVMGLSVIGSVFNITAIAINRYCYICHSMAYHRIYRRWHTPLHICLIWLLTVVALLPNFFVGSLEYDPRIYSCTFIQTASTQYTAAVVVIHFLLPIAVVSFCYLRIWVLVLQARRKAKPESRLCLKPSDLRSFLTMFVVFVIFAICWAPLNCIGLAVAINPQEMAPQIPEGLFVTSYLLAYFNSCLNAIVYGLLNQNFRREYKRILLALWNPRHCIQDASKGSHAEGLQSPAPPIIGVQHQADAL
Description: (§2) CHO-K1 cell lines stably expressing the human MT1 or MT2 receptors were grown to confluence, harvested in PBS buffer (Gibco, Invitrogen, Saint-Aubin, France) containing 5 mM EDTA, and centrifuged at 1,000 g for 20 min (4 °C). The resulting pellet was suspended in 5 mM Tris/HCl (pH 7.4) containing 2 mM EDTA and homogenized using Kinematicapolytron. […] Protein content was determined according to Bradford using the Bio-Rad kit (Bio-Rad SA, Ivry-sur-Seine, France).
(§3) For the [^35S]-GTPγS binding assay, the membranes and compounds were diluted in the binding buffer (20 mM Hepes pH 7.4, 100 mM NaCl, 3 mM MgCl2, 3 μM GDP) in the presence of 20 μg/mL saponin in order to enhance the agonist-induced stimulation. Incubation was started by adding 0.1 nM [^35S]-GTPγS to the membranes and ligands in a final volume of 250 μL and allowed to continue for 60 min at room temperature. Non-specific binding was assessed using non-radiolabeled GTPγS (10 μM). Reactions were stopped by rapid filtration through GF/B unifilters pre-soaked with distilled water, followed by three successive washes with ice-cold buffer.

hMT1 [3] = molecular target: T1, hMT1; assay: [35S]-GTPγS binding assay, hMT1; type: biochemical; settings: for [35S]-GTPγS Emax (%) / Emax: percentage of melatonin (1 μM = 100%); for EC50: mean ± SEM, read-out: [35S]-GTPγS pEC50 (converted)
Description: as §2, §3

hMT2 [4] = molecular target: T2, hMT2; assay: HTRF (TR-FRET) cAMP assay, CHO-K1 cells expressing hMT2; type: cell-based; settings: 5 μM forskolin; for TR-FRET-cAMP Emax (%) / EC50: hMT2; for EC50: read-out: TR-FRET-cAMP pEC50 (converted)
Description: as §1

hMT1 [5] = molecular target: T1, hMT1; assay: Saturation binding of iodinated radioligands, CHO-K1-hMT1 membranes; settings: Scatchard
Description: (§4) CHO-K1 cell lines stably expressing the human MT1 or MT2 receptors were grown to confluence, harvested in PBS buffer (Gibco, Invitrogen, Saint-Aubin, France) containing 5 mM EDTA, and centrifuged at 1,000 g for 20 min (4 °C). The resulting pellet was suspended in 5 mM Tris/HCl (pH 7.4) containing 2 mM EDTA and homogenized using Kinematicapolytron. The homogenate was then centrifuged (20,000 g, 30 min, 4 °C) and the resulting pellet suspended in 75 mM Tris/HCl (pH 7.4) containing 2 mM EDTA and 12.5 mM MgCl2. Protein content was determined according to Bradford using the Bio-Rad kit (Bio-Rad SA, Ivry-sur-Seine, France). Aliquots of membrane preparations were stored in re-suspension buffer (75 mM Tris/HCl pH 7.4, 2 mM EDTA, 12.5 mM MgCl2) at −80 °C until use.
The assays were performed in 96-well plates in 250 μL binding buffer (50 mM Tris/HCl pH 7.4, 5 mM MgCl2, 1 mM EDTA, plus BSA 0.1% for [^125I]-DIV880). The membranes, hMT1 and hMT2, were used at a final concentration of 30 μg of proteins/mL for all radioactive compounds. […]
(§5) The data were analyzed using the program PRISM (GraphPad Software Inc., San Diego, CA, USA). For the saturation assay, the binding site density (Bmax) and dissociation constant for the radioligand (Kd) were calculated according to the Scatchard method.

hMT2 [6] = molecular target: T2, hMT2; assay: Saturation binding of iodinated radioligands, CHO-K1-hMT2 membranes; settings: Scatchard; for Bmax: saturation
Description: as §4
The assays were performed in 96-well plates in 250 μL binding buffer (50 mM Tris/HCl pH 7.4, 5 mM MgCl2, 1 mM EDTA, plus BSA 0.1% for [^125I]-DIV880). The membranes, hMT1 and hMT2, were used at a final concentration of 30 μg of proteins/mL for all radioactive compounds. For all protocols, the reaction was stopped by rapid filtration through GF/B unifilters (PEI 0.1% treated for [^125I]-DIV880), followed by three successive washes with ice-cold buffer (50 mM Tris/HCl, pH 7.4).
as §5

[7] = system: standard set of receptors and a small number of enzymatic targets; assay: Standard selectivity procedure (Cerep panel); type: binding; settings: at 10 μM, cold compounds, transporters, channels, caspase-3, EGFR kinase, PKCα
Excerpt: […]

hMT2 [8] = molecular target: T2, hMT2; assay: [125I]-2IMLT competition binding, CHO-K1 membranes, hMT2; settings: for Ki: hMT2; for Difference in affinity MT2 versus MT1: Ki/pKi better for MT2 than for MT1
Description: as §4
(§6) The assays were described previously. […] The results were expressed as the inhibition constant Ki, taking into account the concentration of radioligand used in each experiment. Non-specific binding was defined using 10 μM melatonin. The reaction was stopped by rapid filtration through GF/B unifilters, followed by three successive washes with ice-cold buffer. The data were analyzed using the program PRISM (GraphPad Software Inc., San Diego, CA, USA).

hMT1 [9] = molecular target: T1, hMT1; assay: [125I]-2IMLT competition binding, CHO-K1 membranes, hMT1; settings: 20 pM [125I]-2IMLT, 2 h 37 °C, mean ± SEM, read-out: Affinity pKi (converted)
Description: as §4, §6

[10] = CHO-K1, read-out: TR-FRET-cAMP Emax (%), hMT1
[11] = CHO-K1, read-out: TR-FRET-cAMP Emax (%), hMT2
[12] = hMT1, read-out: [35S]-GTPγS Emax (%)
[13] = 20 pM [125I]-2IMLT, 2 h 37 °C, mean ± SEM, read-out: Affinity pKi (converted)
[14] = CHO-K1, hMT2, read-out: TR-FRET-cAMP Emax (%)

T1 sequence (P48039 whole entry): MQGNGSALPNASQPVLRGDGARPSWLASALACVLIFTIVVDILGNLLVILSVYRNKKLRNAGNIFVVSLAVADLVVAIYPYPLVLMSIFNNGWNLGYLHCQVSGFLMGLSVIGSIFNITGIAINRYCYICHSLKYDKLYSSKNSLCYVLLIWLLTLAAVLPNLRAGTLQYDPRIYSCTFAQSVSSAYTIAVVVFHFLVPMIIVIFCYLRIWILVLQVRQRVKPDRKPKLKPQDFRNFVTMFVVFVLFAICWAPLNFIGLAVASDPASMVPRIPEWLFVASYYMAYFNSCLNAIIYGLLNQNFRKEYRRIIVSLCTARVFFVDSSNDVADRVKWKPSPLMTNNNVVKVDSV

SMILES: COc1ccc2[nH]cc(CCNC(=O)CI)c2c1 [SD6, N-[2-(5-methoxy-1H-indol-3-yl)ethyl]iodoacetamide]
Emax (hMT1 [1]; [10]): ~100% | TR-FRET-cAMP Emax (%) (hMT1 [1]; hMT1): 103 ± 10% | Emax (hMT2 [2]): > 100% | [35S]-GTPγS Emax (%) (hMT2 [2]): 114 ± 16% | Bmax (hMT1 [5]): 276 fmol/mg of protein | [35S]-GTPγS Emax (%) (hMT1 [3]; hMT1): 115 ± 10% | Emax (hMT1 [3]; [12]): > 100% | Emax (hMT2 [4]; [11]): ~100% | TR-FRET-cAMP Emax (%) (hMT2 [4]): 103 ± 1%

SMILES: COc1ccc2[nH]c(-c3cccc4ccccc34)c(CCNC(=O)C[125I])c2n1 [[^125I]-S70254]
pKd (hMT2 [6]; saturation 0.01–2 nM radioligand): 9.61 ± 0.14 | Bmax (hMT2 [6]): 1,778 ± 87 fmol/mg of protein

SMILES: COc1ccc2[nH]c(-c3cccc4ccccc34)c(CCNC(=O)CI)c2n1 [S70254, 2-iodo-N-2-[5-methoxy-2-(naphthalen-1-yl)-1H-pyrrolo[3,2-b]pyridine-3-yl] Acetamide]
effect on selectivity panel targets [7]: less than 20% | Emax (hMT1 [1]; CHO-K1, hMT1, read-out: TR-FRET-cAMP Emax (%)): 78 ± 12% | EC50 (hMT1 [1]; hMT1): 1450 nM | EC50 (hMT2 [2]): 2.04 nM | Emax (hMT2 [2]): 43 ± 1% | Ki (hMT2 [8]; [13]): 1.86 nM | EC50 (hMT1 [3]; hMT1): 79.4 nM | Emax (hMT1 [3]; [12]): 15 ± 2% | Ki (hMT1 [9]): 661 nM | Emax (hMT2 [4]; [14]): 73% | TR-FRET-cAMP Emax (%) (hMT2 [4]): 76.5 ± 1% | EC50 (hMT2 [4]): 33.9 nM

SMILES: COc1ccc2[nH]c([125I])c(CCNC(C)=O)c2c1 [[^125I]-2IMLT, 2-[^125I]-iodomelatonin]
Bmax (hMT1 [5]): 688 fmol/mg of protein and 688 ± 153 fmol/mg of protein | Bmax (hMT2 [6]): 1,998 ± 318 fmol/mg of protein

The next lines start with the values.

Emax (hMT1 [1]; [10]): ~100% | [35S]-GTPγS Emax (%) (hMT2 [2]): 121 ± 13% | [35S]-GTPγS Emax (%) (hMT1 [3]; hMT1): 108 ± 3% | Emax (hMT1 [3]; read-out: [35S]-GTPγS Emax (%), hMT1): > 100% | Emax (hMT2 [4]; [11]): ~100%
SMILES: COc1ccc2[nH]c(I)c(CCNC(C)=O)c2c1 [2IMLT, 2-iodomelatonin, reference compound]

EC50 (hMT2 [2]): 12.3 nM | Emax (hMT2 [2]): 58 ± 2% | Difference in affinity MT2 versus MT1 (hMT2 [8]): at least 2 logs | Ki (hMT2 [8]; [13]): 7.24 nM | EC50 (hMT1 [3]; hMT1): > 10000 nM | Ki (hMT1 [9]): 562 nM
SMILES: COc1cc(Br)c(Cc2cc(OC)c(OC)cc2CC(=O)OC(C)(C)C)cc1OC [DIV879, Tert-butyl 2-(2-[(2-bromo-4,5-dimethoxyphenyl)methyl]-4,5-dimethoxyphenyl) Acetate]

effect on selectivity panel targets [7]: less than 20% | EC50 (hMT1 [1]; hMT1): > 10000 nM | EC50 (hMT2 [2]): 10.7 nM | Emax (hMT2 [2]): 67 ± 8% | Difference in affinity MT2 versus MT1 (hMT2 [8]): 2 logs | Ki (hMT2 [8]; [13]): 9.55 nM | Ki (hMT2 [8]; approximate range in text, read-out: affinity for MT2 (range given)): ~10 nM | EC50 (hMT1 [3]; hMT1): 1260 nM | Emax (hMT1 [3]; [12]): 10 ± 1% | Ki (hMT1 [9]): 832 nM | Emax (hMT2 [4]; [14]): 97 ± 1% | EC50 (hMT2 [4]): 16.2 nM
SMILES: COc1cc(I)c(Cc2cc(OC)c(OC)cc2CC(=O)OC(C)(C)C)cc1OC [DIV880]
